“And” between values parts separate entries of the source, which are not always exact repeats. Equal values may be shown once. Read-outs that look alike come from different tables or passages of the source.
Target: T1, FIH^WT (Homo sapiens, UniProt Q9NWT6)
T1 construct: pET28a vectors encoding for full-length FIH with an N-terminal His6 tag; His6 (N); host or cells: Escherichia coli BL21
Test: Affinity-based fluorescence polarization (FP) assay with FIH WT, without and with 365 nm irradiation
Details: read-out: Binding affinity to FIH^WT: Ki
Text: We also performed a reported affinity-based fluorescence polarization (FP) assay (Figure S6) , under light activation to measure the binding affinity of NBA-ZG-2291 to FIH (Figure A). […] These observations are consistent with the intact protein MS analyzes. We also evaluated the binding affinities of two negative controls to FIH, which were designed not to covalently react with Lys106.
4 (A) Light-induced click conjugation between NBA-ZG-2291 and FIH protein. (B) Light-induced binding affinity of NBA-ZG-2291 to FIH^ WT . (C) Light-induced binding affinity of NBA-ZG-2291 to FIH^ K106A . […] TEXT PRINTED IN THE PICTURE: (B) NBA-ZG-2291: Binding affinity to FIH^WT: Ki (nM): 414 ± 14 (Irradtion time (min): 0); Binding affinity to FIH^WT: Ki (nM): 74.1 ± 1.6 (Irradtion time (min): 15); Binding affinity to FIH^WT: Ki (nM): 46.7 ± 1.4 (Irradtion time (min): 30); Binding affinity to FIH^WT: Ki (nM): 33.2 ± 0.6 (Irradtion time (min): 60); Binding affinity to FIH^WT: Ki (nM): 30.2 ± 2.0 (Irradtion time (min): 90); Binding affinity to FIH^WT: Ki (nM): 32.1 ± 0.7 (Irradtion time (min): 120) | (B) Neg-1: Binding affinity to FIH^WT: Ki (nM): 423 ± 7 (Irradtion time (min): 0); Binding affinity to FIH^WT: Ki (nM): 408 ± 30 (Irradtion time (min): 15); Binding affinity to FIH^WT: Ki (nM): 459 ± 32 (Irradtion time (min): 30); Binding affinity to FIH^WT: Ki (nM): 427 ± 17 (Irradtion time (min): 60); Binding affinity to FIH^WT: Ki (nM): 396 ± 29 (Irradtion time (min): 90); Binding affinity to FIH^WT: Ki (nM): 428 ± 15 (Irradtion time (min): 120) | (B) Neg-2: Binding affinity to FIH^WT: Ki (nM): 742 ± 65 (Irradtion time (min): 0); Binding affinity to FIH^WT: Ki (nM): 799 ± 69 (Irradtion time (min): 15); Binding affinity to FIH^WT: Ki (nM): 758 ± 13 (Irradtion time (min): 30); Binding affinity to FIH^WT: Ki (nM): 744 ± 30 (Irradtion time (min): 60); Binding affinity to FIH^WT: Ki (nM): 788 ± 36 (Irradtion time (min): 90); Binding affinity to FIH^WT: Ki (nM): 786 ± 35 (Irradtion time (min): 120) | (C) NBA-ZG-2291: Binding affinity to FIH^K106A: Ki (nM): 442 ± 12 (Irradtion time (min): 0); Binding affinity to FIH^K106A: Ki (nM): 427 ± 22 (Irradtion time (min): 15); Binding affinity to FIH^K106A: Ki (nM): 426 ± 7 (Irradtion time (min): 30); Binding affinity to FIH^K106A: Ki (nM): 420 ± 11 (Irradtion time (min): 60); Binding affinity to FIH^K106A: Ki (nM): 418 ± 5 (Irradtion time (min): 90); Binding affinity to FIH^K106A: Ki (nM): 424 ± 12 (Irradtion time (min): 120) | (C) Neg-1: Binding affinity to FIH^K106A: Ki (nM): 271 ± 14 (Irradtion time (min): 0); Binding affinity to FIH^K106A: Ki (nM): 275 ± 15 (Irradtion time (min): 15); Binding affinity to FIH^K106A: Ki (nM): 268 ± 25 (Irradtion time (min): 30); Binding affinity to FIH^K106A: Ki (nM): 266 ± 22 (Irradtion time (min): 60); Binding affinity to FIH^K106A: Ki (nM): 264 ± 41 (Irradtion time (min): 90); Binding affinity to FIH^K106A: Ki (nM): 270 ± 3 (Irradtion time (min): 120) | (C) Neg-2: Binding affinity to FIH^K106A: Ki (nM): 567 ± 37 (Irradtion time (min): 0); Binding affinity to FIH^K106A: Ki (nM): 548 ± 61 (Irradtion time (min): 15); Binding affinity to FIH^K106A: Ki (nM): 521 ± 50 (Irradtion time (min): 30); Binding affinity to FIH^K106A: Ki (nM): 627 ± 17 (Irradtion time (min): 60); Binding affinity to FIH^K106A: Ki (nM): 565 ± 10 (Irradtion time (min): 90); Binding affinity to FIH^K106A: Ki (nM): 552 ± 38 (Irradtion time (min): 120) […]
3. Experimental procedures
3.1 Fluorescence polarization (FP) assays1 with FIHWT and FIHK106A pET28a vectors encoding for full-length FIH with an N-terminal His6 tag or for FIH (K106A) with an N-terminal His6 tag were purchased from Nanjing Zoonbio Biotechnology. Both the FIHWT and FIHK106A protein were expressed from the respective plasmid in Escherichia coli BL21 at 20 °C for 16 h. E. coli cells were lysed and the lysate were clarified by centrifugation. His6- […]

T1 sequence (Q9NWT6 whole entry): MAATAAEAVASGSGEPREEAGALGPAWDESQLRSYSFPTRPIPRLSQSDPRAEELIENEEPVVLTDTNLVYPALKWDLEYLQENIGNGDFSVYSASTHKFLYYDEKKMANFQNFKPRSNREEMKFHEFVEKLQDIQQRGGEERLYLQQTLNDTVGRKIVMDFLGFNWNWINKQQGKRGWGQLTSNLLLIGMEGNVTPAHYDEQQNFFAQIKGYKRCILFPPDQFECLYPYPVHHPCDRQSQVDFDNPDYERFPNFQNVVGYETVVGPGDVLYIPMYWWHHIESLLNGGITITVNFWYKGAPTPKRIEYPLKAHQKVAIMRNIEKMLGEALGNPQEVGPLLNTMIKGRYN

- Ki (irradiation time 0 min): 414 ± 14 nM
- Ki (irradiation time 15 min): 74.1 ± 1.6 nM
- Ki (irradiation time 30 min): ~40 nM and 46.7 nM
- Ki (irradiation time 60 min): 33.2 ± 0.6 nM
- Ki (irradiation time 90 min): 30.2 ± 2 nM
- Ki (irradiation time 120 min): 32.1 ± 0.7 nM
Structure (SMILES): O=C(O)CNC(=O)c1ncc(-c2cc(-c3ccc(CO)c([N+](=O)[O-])c3)no2)cc1O [NBA-ZG-2291]

— publication PMC12123601, “Light-Induced, Lysine-Targeting Irreversible Covalent Inhibition of the Human Oxygen Sensing Hydroxylase Factor Inhibiting HIF (FIH)” (Journal of the American Chemical Society, 2025)
